Assays:
Erigeron canadensis [1] = assay: Herbicidal activity against Conyza canadensis (horseweed) under greenhouse condition at 0.05 kg ae/ha measured 14 days post treatment relative to control; assay type: functional
Erigeron canadensis [2] = assay: Herbicidal activity against compound-resistant Conyza canadensis (horseweed) isolate 2 under greenhouse condition at 1.68 kg ae/ha measured 21 days post treatment relative to control; assay type: functional
Erigeron canadensis [3] = assay: Herbicidal activity against compound-resistant Conyza canadensis (horseweed) isolate 2 under greenhouse condition at 0.45 kg ae/ha measured 21 days post treatment relative to control; assay type: functional
Erigeron canadensis [4] = assay: Herbicidal activity against compound-sensitive Conyza canadensis (horseweed) under greenhouse condition at 0.84 kg ae/ha measured 7 days post treatment relative to control; assay type: functional
Erigeron canadensis [5] = assay: Herbicidal activity against compound-resistant Conyza canadensis (horseweed) isolate 1 under greenhouse condition at 2.52 kg ae/ha measured 21 days post treatment relative to control; assay type: functional
Erigeron canadensis [6] = assay: Herbicidal activity against compound-resistant Conyza canadensis (horseweed) isolate 1 under greenhouse condition at 1.68 kg ae/ha measured 21 days post treatment relative to control; assay type: functional
Erigeron canadensis [7] = assay: Herbicidal activity against compound-resistant Conyza canadensis (horseweed) isolate 1 under greenhouse condition at 0.45 kg ae/ha measured 21 days post treatment relative to control; assay type: functional
Erigeron canadensis [8] = assay: Herbicidal activity against compound-resistant Conyza canadensis (horseweed) isolate 1 under greenhouse condition at 9 kg ae/ha measured 7 days post treatment relative to control; assay type: functional
Erigeron canadensis [9] = assay: Herbicidal activity against compound-resistant Conyza canadensis (horseweed) isolate 1 under greenhouse condition at 2.52 kg ae/ha measured 7 days post treatment relative to control; assay type: functional
Erigeron canadensis [10] = assay: Herbicidal activity against compound-resistant Conyza canadensis (horseweed) isolate 1 under greenhouse condition at 1.25 kg ae/ha measured 7 days post treatment relative to control; assay type: functional
Erigeron canadensis [11] = assay: Herbicidal activity against compound-sensitive Conyza canadensis (horseweed) under greenhouse condition at 1.25 kg ae/ha measured 21 days post treatment relative to control; assay type: functional
Erigeron canadensis [12] = assay: Herbicidal activity against compound-sensitive Conyza canadensis (horseweed) under greenhouse condition assessed as fresh weight at 3.36 kg ae/ha measured 21 days post treatment relative to untreated control
Erigeron canadensis [13] = assay: Herbicidal activity against compound-resistant Conyza canadensis (horseweed) isolate 1 under greenhouse condition assessed as fresh weight at 3.36 kg ae/ha measured 21 days post treatment relative to untreated control
Erigeron canadensis [14] = assay: Herbicidal activity against compound-resistant Conyza canadensis (horseweed) isolate 1 under greenhouse condition assessed as fresh weight at 2.52 kg ae/ha measured 21 days post treatment relative to untreated control
Erigeron canadensis [15] = assay: Herbicidal activity against compound-resistant Conyza canadensis (horseweed) isolate 2 under greenhouse condition assessed as fresh weight at 1.68 kg ae/ha measured 21 days post treatment relative to untreated control

`O=C(O)CNCP(=O)(O)O` [GLYPHOSATE] was tested, and the Activity (Erigeron canadensis [1]) was 16%, the Activity (Erigeron canadensis [2]) was 50% and the Activity (Erigeron canadensis [3]) was 20%. The Activity (Erigeron canadensis [4]) was 58%, the Activity (Erigeron canadensis [5]) was 59% and the Activity (Erigeron canadensis [6]) was 43%. It also gave an Activity (Erigeron canadensis [7]) of 11%, an Activity (Erigeron canadensis [8]) of 80% and an Activity (Erigeron canadensis [9]) of 58%. For the same molecule, the Activity (Erigeron canadensis [10]) was 28%, the Activity (Erigeron canadensis [11]) was 90% and the “level, % of control” value (Erigeron canadensis [12]) was 6%. For the same molecule, the “level, % of control” value (Erigeron canadensis [13]) was 7%, the “level, % of control” value (Erigeron canadensis [14]) was 25% and the “level, % of control” value (Erigeron canadensis [15]) was 49%.

— ChEMBL document CHEMBL3045777, “Response of selected horseweed (Conyza canadensis (L.) Cronq.) populations to glyphosate” (2004)
